Results reported in publication PMC5390315 (Scientific Reports, 2017).

Key:
[1] = system: HeLa; test: Antiproliferative MTT assay, HeLa; type: cell-based, human; details: Homo sapiens, HeLa, 72 h, mean ± SE
Protocol: (§1) Human T-cell leukemia (Jurkat) and human B-cell leukemia (SEM and RS4;11) cells were grown in RPMI-1640 medium (Gibco, Milano, Italy). Breast adenocarcinoma (MCF-7), human cervix carcinoma (HeLa), human lung adenocarcinoma (A549) and human colon adenocarcinoma (HT-29) cells were grown in DMEM medium (Gibco, Milano, Italy), all supplemented with 115 units/mL penicillin G (Gibco, Milano, Italy), 115 μg/mL streptomycin (Invitrogen, Milano, Italy), and 10% fetal bovine serum (FBS; Invitrogen, Milano, Italy). Stock solutions (10 mM) of the different compounds were obtained by dissolving them in DMSO. Individual wells of a 96-well tissue culture microtiter plate were inoculated with 100 μL of complete medium containing 8 × 10^3 cells. The plates were incubated at 37 °C in a humidified 5% CO2 incubator for 18 h prior to the experiments. After medium removal, 100 μL of fresh medium containing the test compound at different concentrations was added to each well in triplicate and incubated at 37 °C for 72 h. The percentage of DMSO in the medium never exceeded 0.25%. This was also the maximum DMSO concentration in all cell-based assays described below.

[2] = system: A549; test: Antiproliferative MTT assay, A549; type: cell-based, human; details: Homo sapiens, A549, 72 h, mean ± SE
Protocol: as §1

[3] = system: HT-29; test: Antiproliferative MTT assay, HT-29; type: cell-based, human; details: Homo sapiens, HT-29, 72 h, mean ± SE
Protocol: as §1

[4] = system: Jurkat; test: Antiproliferative MTT assay, Jurkat; type: cell-based, human; details: Homo sapiens, Jurkat, 72 h, mean ± SE
Protocol: as §1

[5] = system: RS 4;11; test: Antiproliferative MTT assay, RS 4;11; type: cell-based, human; details: Homo sapiens, RS4-11, 72 h, mean ± SE
Protocol: as §1

[6] = system: bovine brain tubulin; test: Inhibition of tubulin polymerization; type: biochemical; details: tubulin at 10 μM; read-out: Tubulin assembly IC50 ± S.D
Protocol: To evaluate the effect of the compounds on tubulin assembly in vitro[41], varying concentrations of compounds were preincubated with 10 μM bovine brain tubulin in 0.8 M monosodium glutamate (pH adjusted to 6.6 with HCl in a 2.0 M stock solution) at 30 °C and then cooled to 0 °C. After addition of 0.4 mM GTP, the mixtures were transferred to 0 °C cuvettes in a recording spectrophotometer and warmed to 30 °C. Tubulin assembly was followed turbidimetrically at 350 nm. […] The capacity of the test compounds to inhibit colchicine binding to tubulin was measured as described, except that the reaction mixtures contained 1 μM tubulin, 5 μM [^3H]colchicine and 1 or 5 μM test compound.

[7] = system: HeLa cells; test: Mitotic cells by p-histone H3/PI flow cytometry; type: cell-based, human; details: 100 nM, 24 h, untreated 1.3%
[8] = system: Jurkat cells; test: Annexin-V/PI apoptosis assay, Jurkat; type: cell-based, human; details: 60 nM, 24 h
Protocol: Cell death was determined by flow cytometry of cells double stained with annexin V/FITC and PI. The Coulter Cytomics FC500 (Beckman Coulter) was used to measure the surface exposure of PS on apoptotic cells according to the manufacturer’s instructions (Annexin-V Fluos, Roche Diagnostics).

[9] = system: HeLa cells; test: ROS production (H2-DCFDA), HeLa; type: cell-based, human; details: 100 nM, untreated about 4%
[10] = system: B16 murine melanoma cells; test: MTT assay on B16 murine melanoma cells; type: cell-based; details: Mus musculus
[11] = system: HUVECs; test: HUVEC scratch wound motility assay; type: cell-based, human; details: 100 nM, 6 h and 24 h
Protocol: (§2) HUVECs were prepared from human umbilical cord veins, as previously described. The adherent cells were maintained in M200 medium supplemented with LSGS (Low Serum Growth Supplement), containing FBS, hydrocortisone, hEGF, bFGF, heparin, gentamycin/amphotericin (Life Technologies, Monza, Italy). Once confluent, the cells were detached by a trypsin–EDTA solution and used in experiments from the first to sixth passages.
The motility assay for HUVECs was based on “scratch” wounding of a confluent monolayer. Briefly, HUVECs (1x10^5) were seeded onto 6-well plates coated with 0.1% collagen type I (BD Biosciences, Italy) in complete medium until a confluent monolayer was formed. The cells were wounded using a pipette tip, and wells were washed with PBS to remove undetached cells. Then, the cells were treated with the test compounds, and, at different times from the scratch, the cells were photographed under a light microscope. At all indicated time points, the wound width was measured in four areas and compared with the initial width.

[12] = system: HUVECs; test: Disruption of capillary-like tubes on Matrigel; type: cell-based, human; details: 100 nM (highest concentration), 24 h
Protocol: as §2
Matrigel matrix (Basement Membrane Matrix, BD Biosciences, Italy) was kept at 4 °C for 3 h, when 230 μL of Matrigel solution was added to each well of a 24-well plate. After gelling at 37 °C for 30 min, gels were overlaid with 500 μL of medium containing 6 × 10^4 HUVECs. The cells were incubated over Matrigel for 6 h to allow capillary tubes to form. Different concentrations of test compound were added in the cultures and incubated for different times, and the disappearance of existing vasculature was monitored and photographed (five fields for each well: the four quadrants and the center) at a 10x magnification. Phase contrast images were recorded using a digital camera and saved as TIFF files. Image analysis was carried out using ImageJ image analysis software, and dimensional (percent area covered by HUVECs and total length of HUVECs network per field) and topological parameters (number of meshes and branching points per field) were determined. Values were expressed as percent change from control cultures grown with complete medium.

[13] = system: HeLa cells; test: Western blot analysis of cell cycle and apoptosis proteins; type: cell-based, human
Protocol: HeLa cells were incubated in the presence of 4i and, after different times, were collected, centrifuged, and washed two times with ice cold phosphate buffered saline (PBS). The pellet was then resuspended in lysis buffer. After the cells were lysed on ice for 30 min, lysates were centrifuged at 15000× g at 4 °C for 10 min. The protein concentration in the supernatant was determined using the BCA Protein Assay (Pierce, Italy). Equal amounts of protein (10 μg) were resolved using sodium dodecyl sulfate-polyacrylamide gel electrophoresis (SDS-PAGE) (Criterion Precast, BioRad, Italy) and transferred to a PVDF Hybond-P membrane (GE Healthcare). Membranes were blocked with a bovine serum albumin solution (5% in Tween PBS 1X), the membranes being gently rotated overnight at 4 °C. Membranes were then incubated with primary antibodies against caspase-9, PARP, cdc25c, p-H2AX^Ser139, cyclin B, p-cdc2^Tyr15 (all from Cell Signaling) or β-actin (Sigma-Aldrich) for 2 h at room temperature. Membranes were next incubated with peroxidase labeled secondary antibodies for 60 min. All membranes were visualized using ECL Select (GE Healthcare), and images were acquired using an Uvitec-Alliance imaging system (Uvitec, Cambridge, UK). To ensure equal protein loading, each membrane was stripped and reprobed with anti-β-actin antibody.

SMILES: CCOc1ccc(-c2oc(C)nc2-c2cc(OC)c(OC)c(OC)c2)cc1 [Compound 4i, 4-(3,4,5-Trimethoxyphenyl)-5-(4-ethoxyphenyl)-2-methyloxazole]
- IC50 [1]: 0.9 ± 0.3 nM
- IC50 [2]: 0.5 ± 0.1 nM
- IC50 [3]: 20.2 ± 8.8 nM
- IC50 [4]: 4.1 ± 1.1 nM
- IC50 [5]: 2.1 ± 0.2 nM
- IC50 [6]: 560 ± 100 nM
- percentage of mitotic cells (p-histone H3) [7]: ~46%
- apoptotic cells (annexin-V) [8]: 40%
- DCF positive cells (ROS production) [9]: 25–30%
- IC50 [10]: 15.6 ± 1.9 nM
- HUVEC cell migration (wound healing) [11]: significantly reduced
- antivascular effect on Matrigel preformed tubular structures [12]: did not show a significant antivascular effect
- expression of Mcl-1 ([13]; 100 nM): only slightly decreased
- total cdc25c expression ([13]; 100 nM, 24 and 48 h): reduced
- XIAP expression ([13]; 24 and 48 h): significantly reduced
- cyclin B1 expression ([13]; 24 and 48 h, concentration dependent): marked increase
- PARP cleavage ([13]; 50 or 100 nM, 24 and 48 h): appearance of its cleavage fragments
- phosphorylation of γH2A.X (Ser139) ([13]; 48 h): great increase
- expression of phosphorylated cdc2 ([13]; most noticeable at 24 h, 100 nM): decreased
